Read-outs that look alike come from different tables or passages of the source.
Columns and labels:
RIPK1 (h) = target: T1, RIPK1 (h) (Homo sapiens, UniProt Q13546); experiment: KinaseProfiler assay (Eurofins Cerep), hRIPK1 inhibition; assay type: biochemical; conditions: 9 concentrations (0.0001 μM–1.0 μM), 10 μM ATP
T1 construct: purchased Eurofins Cerep (KinaseProfiler service)
T1 sequence (Q13546 1-671): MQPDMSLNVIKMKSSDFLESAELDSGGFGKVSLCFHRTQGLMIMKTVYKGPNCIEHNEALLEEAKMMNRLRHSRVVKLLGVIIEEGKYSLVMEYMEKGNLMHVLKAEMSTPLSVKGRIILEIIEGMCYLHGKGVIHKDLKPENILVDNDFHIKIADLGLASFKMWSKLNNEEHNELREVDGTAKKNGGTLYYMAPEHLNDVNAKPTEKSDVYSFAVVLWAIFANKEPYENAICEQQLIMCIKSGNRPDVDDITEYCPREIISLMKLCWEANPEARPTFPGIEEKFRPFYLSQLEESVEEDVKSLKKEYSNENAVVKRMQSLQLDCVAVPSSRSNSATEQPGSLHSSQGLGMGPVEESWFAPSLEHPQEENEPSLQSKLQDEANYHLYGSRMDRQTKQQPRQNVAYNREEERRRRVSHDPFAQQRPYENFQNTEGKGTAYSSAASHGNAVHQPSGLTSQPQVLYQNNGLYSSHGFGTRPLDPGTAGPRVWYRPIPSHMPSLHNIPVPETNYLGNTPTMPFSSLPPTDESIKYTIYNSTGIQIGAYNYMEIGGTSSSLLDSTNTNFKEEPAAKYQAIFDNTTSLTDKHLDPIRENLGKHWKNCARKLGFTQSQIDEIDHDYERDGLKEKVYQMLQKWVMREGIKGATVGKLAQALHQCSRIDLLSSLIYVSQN
Experimental: RIPK1 (h) is incubated with 8 mM MOPS pH 7.0, 0.2 mM EDTA, 0.33 mg/mL myelin basic protein, 10 mM Magnesium acetate and [γ-^33P-ATP] (specific activity and concentration as required). The reaction is initiated by the addition of the Mg/ATP mix. After incubation for 120 min at room temperature, the reaction is stopped by the addition of phosphoric acid to a concentration of 0.5%.

HT-29 = experiment: Necroptosis (hTNF + TAK1i + zVAD.fmk) in HT-29 cells, Sytox Green; conditions: Homo sapiens, HT-29, read-out: Necroptosis hTNF + TAK1i + zVAD.fmk HT-29 IC50
Experimental: In brief, the cells were seeded in duplicate at 10,000 cells per well in a 96-well adherent plate and incubated overnight at 37°C with 5% CO2. […] All the compound stock solutions were prepared in DMSO at 200 µM concentration. After stimulating the cells with human TNF at 20 ng/mL the plate was transferred to the incubator. Sytox Green intensity was measured in function of time at 0, 14 and 24 h with an excitation filter of 485 nm, an emission filter of 520 nm. The cell death was calculated by subtracting the background fluorescence from the induced Sytox Green fluorescence and by dividing the obtained result by the maximal fluorescence (minus the background fluorescence) obtained by permeabilization of the cells by using Triton X-100 at a final concentration of 0.1%. Curves were plotted in GraphPad 9 for the IC50 calculation.
To induce necroptosis in human colorectal adenocarcinoma cell line (HT-29) together with hTNF and the pan caspases inhibitor zVAD.fmk, TAK1 inhibitor is also needed.

immortalized MEFs = experiment: RIPK1 kinase-dependent necroptosis (hTNF + zVAD.fmk) in MEFs, Sytox Green; assay type: cell-based, mouse; conditions: Mus musculus, 24 h;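 note: cell death taken as background-corrected Sytox Green fluorescence relative to the maximal signal of cells fully permeabilized with 0.1% Triton X-100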
Experimental: In brief, the cells were seeded in duplicate at 10,000 cells per well in a 96-well adherent plate and incubated overnight at 37°C with 5% CO2. […] All the compound stock solutions were prepared in DMSO at 200 µM concentration. After stimulating the cells with human TNF at 20 ng/mL the plate was transferred to the incubator. […] The cell death was calculated by subtracting the background fluorescence from the induced Sytox Green fluorescence and by dividing the obtained result by the maximal fluorescence (minus the background fluorescence) obtained by permeabilization of the cells by using Triton X-100 at a final concentration of 0.1%. Curves were plotted in GraphPad 9 for the IC50 calculation.
Consequently, the compounds were evaluated for their potential protection of RIPK1-mediated necroptosis following human TNF stimulation.

PERK = target: T2, PERK (Mus musculus, UniProt Q9Z2B5); experiment: PERK autophosphorylation by Western blot in tunicamycin-stimulated immortalized MEFs; assay type: cell-based
T2 construct: Immortalized MEFs were pretreated for 30 min with increasing concentrations of GSK’157 and the indicated compounds and stimulated with tunicamycin; endogenous in cells; host or cells: immortalized mouse embryonic fibroblasts (MEFs, C57Bl6/J)
T2 sequence (Q9Z2B5 29-1114): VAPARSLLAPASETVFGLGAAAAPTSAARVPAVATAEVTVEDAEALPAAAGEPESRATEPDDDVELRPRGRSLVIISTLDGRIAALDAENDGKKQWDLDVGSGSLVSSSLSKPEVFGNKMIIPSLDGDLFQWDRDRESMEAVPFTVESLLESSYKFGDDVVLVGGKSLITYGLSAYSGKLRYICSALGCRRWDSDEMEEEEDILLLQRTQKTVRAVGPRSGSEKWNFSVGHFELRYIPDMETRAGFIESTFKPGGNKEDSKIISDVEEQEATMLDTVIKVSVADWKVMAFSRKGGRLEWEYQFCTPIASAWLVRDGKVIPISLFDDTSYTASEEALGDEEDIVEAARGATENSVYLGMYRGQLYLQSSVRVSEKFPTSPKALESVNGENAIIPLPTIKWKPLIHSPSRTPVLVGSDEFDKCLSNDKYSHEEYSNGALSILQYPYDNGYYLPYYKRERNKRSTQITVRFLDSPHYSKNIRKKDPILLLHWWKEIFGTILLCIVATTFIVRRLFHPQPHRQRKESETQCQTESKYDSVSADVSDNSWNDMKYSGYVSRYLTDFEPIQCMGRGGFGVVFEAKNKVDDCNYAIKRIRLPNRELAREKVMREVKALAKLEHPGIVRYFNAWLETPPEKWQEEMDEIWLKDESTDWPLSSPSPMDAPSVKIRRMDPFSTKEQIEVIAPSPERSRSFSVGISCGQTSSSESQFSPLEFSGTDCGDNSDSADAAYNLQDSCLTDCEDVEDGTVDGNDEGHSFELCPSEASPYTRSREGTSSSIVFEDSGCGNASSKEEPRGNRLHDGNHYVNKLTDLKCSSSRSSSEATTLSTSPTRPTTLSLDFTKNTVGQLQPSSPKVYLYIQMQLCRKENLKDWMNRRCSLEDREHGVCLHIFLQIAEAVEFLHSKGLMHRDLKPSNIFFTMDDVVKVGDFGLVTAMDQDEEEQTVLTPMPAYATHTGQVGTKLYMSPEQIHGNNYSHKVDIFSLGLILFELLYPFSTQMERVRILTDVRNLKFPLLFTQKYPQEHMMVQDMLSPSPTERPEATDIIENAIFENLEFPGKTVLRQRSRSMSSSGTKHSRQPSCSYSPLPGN
Experimental: MEFs were seeded in 6-well plates at a density of 300.000 cells/well in 2 mL. The next day, the cells were suspended in 1 mL of medium and pre-treated for 30 min with the indicated compounds at 1/5 dilutions series for PERK ranging from 5 to 0.04 µM and 1 μg/mL of Tm followed by 4 h treatment with 20 ng/mL of hTNF. For RIPK1, the cells were pre-treated at 1/10 dilutions series ranging from 10 to 0.01 nM, 50 µM zVAD.fmk and 1 µM TAKi before stimulation with 20 ng/mL of hTNF for 2.5 h. Then, the cells were washed two times with 1 mL of ice-cold PBS before lysis in 0.2 mL of Laemmli buffer 1x (10% (w/v) SDS, 50% glycerol, 0.5% bromophenol blue, 250 mM Tris–HCl pH 6.8) and 250 mM of dithiothreitol (DTT). The cell lysate was then collected and boiled at 95 °C for 10min and stored at −20°C. Proteins expression was later monitored by immunoblotting.
Their activities were evaluated by comparing the intensity of the signal to unstimulated MEFs (considered as zero phosphorylation) and Tunicamycin stimulated cells (considered as 100% PERK phosphorylation). […] The MEFs were pre-incubated for 30 min with the different compounds (0.01 nM–1000 nM) and then stimulated with human TNF (20 ng/mL) for 2.5 h. Similar to the PERK assessment, IC50 values for RIPK1 inhibition were estimated as a range of concentrations, and are reported in Table 1.

Q: How did the IC50 (RIPK1 (h)) turn out when `Cn1cc(-c2ccc3c(c2F)CCN3C(=O)Cc2ccc(C(F)(F)F)cn2)c2c(N)ncnc21` [Compound 22] was run?
A: 139 nM

Q: And the IC50 (HT-29)?
A: 6.5 nM

Q: What about the IC50 (immortalized MEFs; immortalized MEFs, zVAD-fmk 50 μM + hTNF 20 ng/ml, Sytox Green at 24 h, Table 1 series, read-out: IC50 necroptosis) of the same compound?
A: 2.9 nM

Q: And the IC50 (immortalized MEFs; MEFs, hTNF + zVAD.fmk (20 ng/mL), Table 2, read-out: Necroptosis hTNF + zVAD.fmk MEFs IC50)?
A: 1.06 nM

Q: And the “PERK inhibition at the tested concentrations (in words)” value (PERK; MEFs, Western blot, 0.04, 0.2, 1 and 5 µM, highest concentration tested 5 µM)?
A: no PERK inhibition

Q: What about the IC50 (PERK; immortalized MEFs, 30 min pretreatment, tunicamycin 1 μg/ml for 4 h, PERK autophosphorylation, read-out: PERK inhibition (IC50 estimated from a Western blot)) of the same compound?
A: > 5000 nM
